Results as given in article PMC11876601 (Molecular Systems Biology, 2025).
Several values for one entry are separate records, joined by “and”; a condition that tells them apart may be missing. Equal entries are not always repeated. Where two headings read alike, the source gives them in different places.

Test system: AsPC-1 cells
Assay: Cell proliferation assay, chemodrug + ATR inhibitor (Incucyte confluence, 72 h);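 note: underlying read-out for every value is AsPC-1 confluence after 72 h incubation at 37 °C and 5% CO2, divided by that well's starting confluence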
Conditions: for Raw data (confluence at 72 h/confluence at 0 h): Berzosertib experiment; for EC50: Homo sapiens
Description: Cells were seeded at 5000 cells/well into 96-well flat bottom plates (Eppendorf) and allowed to attach overnight. […] Cells were incubated for 72 h at 37 °C and 5% CO2. Cell confluence readouts at 72 h were either normalized to their initial confluence using the Incucyte software (AsPC-1) or used without prior normalization (all others). […] Each experiment was performed in triplicates, the data was plotted as mean ± standard deviation (s.d.).

Q: How did the Response (AsPC1, GEM 1000 nM + ATRi 30 nM) turn out when CNCc1ccc(-c2cc(-c3nc(-c4ccc(S(=O)(=O)C(C)C)cc4)cnc3N)on2)cc1 [Berzosertib] was run?
A: The Response was 1.64.

Q: And the Response (AsPC1, GEM 3000 nM + ATRi 30 nM)?
A: The Response was 1.69.

Q: What about the “Raw data (confluence at 72 h/confluence at 0 h)” value (“Raw data” for short) (replicate R2, titrated drug dose 100 nM) of the same molecule?
A: The value was 1.63.

Q: What about the “Raw data” value (replicate R2, titrated drug dose 300 nM) of the same molecule?
A: Its value is 3.32.

Q: And the “Raw data” value (replicate R2, titrated drug dose 1000 nM)?
A: The value was 1.81.

Q: What about the “Raw data” value (replicate R2, titrated drug dose 3000 nM) of the same molecule?
A: The value was 0.95.

Q: And the “Raw data” value (replicate R2, titrated drug dose 10000 nM)?
A: The value was 1.02.

Q: And the “Raw data” value (replicate R3, titrated drug dose 3 nM)?
A: The value was 3.53.

Q: And the “Raw data” value (replicate R3, titrated drug dose 10 nM)?
A: Its value is 3.58.

Q: And the “Raw data” value (replicate R3, titrated drug dose 30 nM)?
A: Its value is 3.44.

Q: What about the “Raw data” value (replicate R3, titrated drug dose 100 nM) of the same molecule?
A: Its value is 1.82.

Q: What about the “Raw data” value (replicate R3, titrated drug dose 300 nM) of the same molecule?
A: Its value is 3.31.

Q: What about the “Raw data” value (replicate R3, titrated drug dose 1000 nM) of the same molecule?
A: Its value is 1.82.

Q: What about the “Raw data” value (replicate R3, titrated drug dose 3000 nM) of the same molecule?
A: Its value is 0.98.

Q: And the “Raw data” value (replicate R3, titrated drug dose 10000 nM)?
A: The value was 1.08.

Q: And the “Raw data” value (replicate R1, titrated drug dose 3 nM)?
A: Its value is 3.58.

Q: What about the “Raw data” value (replicate R1, titrated drug dose 10 nM) of the same molecule?
A: The value was 3.42.

Q: What about the “Raw data” value (replicate R1, titrated drug dose 30 nM) of the same molecule?
A: The value was 3.67.

Q: And the “Raw data” value (replicate R1, titrated drug dose 100 nM)?
A: The value was 3.44.

Q: What about the “Raw data” value (replicate R1, titrated drug dose 300 nM) of the same molecule?
A: The value was 3.48.

Q: And the “Raw data” value (replicate R1, titrated drug dose 1000 nM)?
A: The value was 1.39.

Q: And the “Raw data” value (replicate R1, titrated drug dose 3000 nM)?
A: Its value is 1.11.

Q: What about the “Raw data” value (replicate R1, titrated drug dose 10000 nM) of the same molecule?
A: The value was 1.24.

Q: What about the “Raw data” value (replicate R2, titrated drug dose 3 nM) of the same molecule?
A: The value was 3.47.

Q: What about the “Raw data” value (replicate R2, titrated drug dose 10 nM) of the same molecule?
A: The value was 3.62.

Q: What about the “Raw data” value (replicate R2, titrated drug dose 30 nM) of the same molecule?
A: The value was 3.68.

Q: What about the Response (GEM 0 nM, ATRi 30 nM) of the same molecule?
A: Its Response is 3.26 and 3.50 and 3.35.

Q: And the Response (GEM 0 nM, ATRi 300 nM)?
A: The Response was 3.38 and 2.28 and 2.67.

Q: And the Response (GEM 1 nM + ATRi 30 nM)?
A: The Response was 3.40 and 3.47 and 3.32.

Q: What about the Response (GEM 1 nM + ATRi 100 nM) of the same molecule?
A: The Response was 3.25 and 2.45 and 2.30.

Q: What about the Response (GEM 1 nM + ATRi 300 nM) of the same molecule?
A: The Response was 3.17 and 2.72 and 2.68.

Q: And the Response (GEM 3 nM + ATRi 30 nM)?
A: Its Response is 3.21 and 3.37 and 3.20.

Q: And the Response (GEM 3 nM + ATRi 100 nM)?
A: The Response was 3.16 and 3.42 and 3.23.

Q: And the Response (GEM 3 nM + ATRi 300 nM)?
A: Its Response is 3.33 and 2.50 and 2.49.

Q: What about the Response (GEM 10 nM + ATRi 30 nM) of the same molecule?
A: Its Response is 3.02 and 3.24 and 3.22.

Q: And the Response (GEM 10 nM + ATRi 100 nM)?
A: The Response was 2.95 and 3.25 and 2.97.

Q: What about the Response (GEM 10 nM + ATRi 300 nM) of the same molecule?
A: The Response was 2.69 and 2.35 and 2.32.

Q: And the Response (GEM 30 nM + ATRi 30 nM)?
A: Its Response is 2.26 and 2.69 and 2.57.

Q: And the Response (GEM 30 nM + ATRi 100 nM)?
A: Its Response is 2.27 and 2.08 and 1.96.

Q: What about the Response (GEM 30 nM + ATRi 300 nM) of the same molecule?
A: The Response was 2.06 and 1.65 and 1.60.

Q: What about the Response (GEM 100 nM + ATRi 30 nM) of the same molecule?
A: The Response was 1.68.

Q: What about the Response (GEM 100 nM + ATRi 100 nM) of the same molecule?
A: The Response was 1.81 and 1.49 and 1.48.

Q: And the Response (GEM 100 nM + ATRi 300 nM)?
A: Its Response is 1.53 and 1.40 and 1.31.

Q: What about the Response (GEM 300 nM + ATRi 30 nM) of the same molecule?
A: Its Response is 1.65 and 1.49.

Q: What about the Response (GEM 300 nM + ATRi 100 nM) of the same molecule?
A: The Response was 1.60 and 1.52 and 1.44.

Q: And the Response (GEM 300 nM + ATRi 300 nM)?
A: The Response was 1.48 and 1.38 and 1.24.

Q: What about the Response (GEM 1000 nM + ATRi 30 nM) of the same molecule?
A: The Response was 1.43 and 1.48.

Q: And the Response (GEM 1000 nM + ATRi 100 nM)?
A: The Response was 1.53 and 1.41 and 1.39.

Q: What about the Response (GEM 1000 nM + ATRi 300 nM) of the same molecule?
A: The Response was 1.41 and 1.36 and 1.30.

Q: And the Response (GEM 3000 nM + ATRi 30 nM)?
A: Its Response is 1.40 and 1.48.

Q: What about the Response (GEM 3000 nM + ATRi 100 nM) of the same molecule?
A: The Response was 1.58 and 1.38 and 1.33.

Q: What about the Response (GEM 3000 nM + ATRi 300 nM) of the same molecule?
A: The Response was 1.46 and 1.27.

Q: What about the EC50 (ASPC1, 72 h, AsPC1, Experiment ATRi (ATR inhibitor alone), single replicates R1-R3) of the same molecule?
A: Its EC50 is 647 nM.

Q: What about the EC50 (ASPC1, 72 h, read-out: EC50 (cell growth), ATR inhibitor as single agent) of the same molecule?
A: The EC50 was 766 nM.

Q: What about the EC50 (ASPC1, 72 h, read-out: EC50 mean [nM], AsPC1, Experiment ATRi (ATR inhibitor alone), mean of replicates) of the same molecule?
A: Its EC50 is 719 nM.

Q: And the EC50 (ASPC1, 72 h, read-out: pEC50, AsPC1 (converted), Experiment ATRi (ATR inhibitor alone), single replicates R1-R3)?
A: Its EC50 is 646 nM.

Q: What about the EC50 (ASPC1, read-out: EC50 mean [nM], AsPC1, Experiment ATRi (ATR inhibitor alone), mean of replicates) of the same molecule?
A: The EC50 was 719 nM.
